# Values quoted from earlier work in publication PMC11768433 (Viruses, 2024).
# Like-named read-outs stand apart in the source and are kept apart here.
# Legend:
# Huh7.5.1 cells = test system: Huh7.5.1 cells; parameters: method as in Ref.22378192; conditions: ref Ref.22378192
# MT-4 cell = test system: MT-4 cell; parameters: method as in Ref.30089693; conditions: ref Ref.30089693
# TZM-bl cell = test system: TZM-bl cell; parameters: method as in Ref.30089693; conditions: ref Ref.30089693
# SARS-CoV-2 = test system: SARS-CoV-2; parameters: method as in Ref.35216177; conditions: SARS-CoV-2 replication, Vero cells; ref Ref.35216177
# HSV-1 = test system: HSV-1; parameters: method as in Ref.35216177; conditions: HSV-1 replication, Vero cells; ref Ref.35216177
# Vero cells [1] = test system: Vero cells; parameters: method as in Ref.35216177; conditions: ref Ref.35216177
# [2] = test system: influenza virus(H1N1,VR-1894); parameters: method as in Ref.35216177; conditions: influenza H1N1 VR-1894 replication, MDKC cells; ref Ref.35216177
# [3] = test system: Human endocervical cells End1/E6E7; parameters: method as in Ref.26026377; conditions: ref Ref.26026377
# P4-CCR5 cells = test system: P4-CCR5 cells; parameters: method as in Ref.15780876; conditions: ref Ref.15780876
# Vero cells [4] = test system: Vero cells; parameters: method as in Ref.35055066; conditions: ref Ref.35055066
# H9 cells = test system: H9 cells; parameters: method as in Ref.12480936; conditions: up to 50 μM, ref Ref.12480936
# HSV-2 = test system: HSV-2; parameters: method as in Ref.35216177; conditions: HSV-2 replication, Vero cells; ref Ref.35216177
# HCoV-229E = test system: HCoV-229E; parameters: method as in Ref.35216177; conditions: HCoV-229E replication, Vero cells; ref Ref.35216177
# HPIV-3 = test system: HPIV-3; parameters: method as in Ref.35216177; conditions: HPIV-3 replication, Vero cells; ref Ref.35216177
# HCoV-OC43 = test system: HCoV-OC43; parameters: method as in Ref.35216177; conditions: HCoV-OC43 replication, Vero cells; ref Ref.35216177
# MDCK cells = test system: MDCK cells; parameters: method as in Ref.17005658; conditions: up to 50μM, ref Ref.17005658
# [5] = test system: Human parainfluenza viruse 3(HPIV 3); parameters: method as in Ref.28344321; conditions: HPIV 3 infection, Vero cells; ref Ref.28344321
# Vero cells [6] = test system: Vero cells; parameters: method as in Ref.28344321; conditions: ref Ref.28344321
# [7] = test system: Herpes simplex virus type 1(HSV-1); parameters: method as in Ref.18572274; conditions: HSV-1 entry, Vero cells, at 250μM; ref Ref.18572274
# Vero cells [8] = test system: Vero cells; parameters: method as in Ref.18572274; conditions: up to 500 μM, ref Ref.18572274
# [9] = test system: Feline immunodeficiency virus (FIV); conditions: FIV replication, CrFK cells, at 16 µg/ml; ref Ref.8661378
# P4 cells = test system: P4 cells; parameters: method as in Ref.12054767; conditions: MTT assay, peptide concentrations higher than 100 μM, ref Ref.12054767
# HIV-1 = test system: HIV-1; parameters: method as in Ref.12054767; conditions: up to 100 μM; ref Ref.12054767
# hepatitis C virus(HCVpp) = test system: hepatitis C virus(HCVpp); parameters: method as in Ref.20156485; conditions: Huh-7 human hepatoma cells, ref Ref.20156485
# Huh-7 cells = test system: Huh-7 cells; parameters: method as in Ref.20156485; conditions: ref Ref.20156485
# MT-4 cells = test system: MT-4 cells; parameters: method as in Ref.30867304; conditions: ref Ref.30867304
# TZM-bl cells = test system: TZM-bl cells; parameters: method as in Ref.30867304; conditions: ref Ref.30867304
# U937 cells = test system: U937 cells; parameters: method as in Ref.30867304; conditions: U937 cells (cell text ends after μ); ref Ref.30867304
# Human PBMC = test system: Human PBMC; parameters: method as in Ref.30867304; conditions: ref Ref.30867304
# C8166 cells = test system: C8166 cells; parameters: method as in Ref.30867304; conditions: ref Ref.30867304
substance,measurement,setting,value
"MANAGLQLLGFILAFLGW [DRAVPe01317, DRAVP database peptide, target HCV]",CC50,Huh7.5.1 cells,~200 Μm
IEELIKKSEEQQKKNEEELKKLEX [DRAVPe00656],CC50,MT-4 cell,164.47 µM
same,CC50,TZM-bl cell,193.63 µM
same,CC50,"PBMC; PBMC, ref Ref.30089693",46.43 µM
"CGGFVPWFSKFlXRIL [DRAVPe00392, DRAVP database entry, TL peptide]",IC90,SARS-CoV-2,10.2 µM
same,IC90,HSV-1,8.21 µM
same,CC50,Vero cells [1],[Ref.35216177]Vero cells:CC50>100.00 μM
same,IC90,[2],9.9 µM
"GLLSVLGSVVKHVIPHVVPVIAEHL [DRAVPe00360, DRAVP database peptide, target HIV]",concentration at 50% cell death,[3],12.5 µM
"ALWMTLLKKVLKAAAKAALNAVLVGANA [DRAVPe01956, DRAVP database peptide, target HIV]",CC50,P4-CCR5 cells,5.6 µM
"GLFSVLGAVAKHVLPHVVPVIAEKL [DRAVPe00355, DRAVP database peptide, target HIV]",concentration at 50% cell death,[3],10 µM
"AIGSILGALAKGLPTLISWIKNR [DRAVPe00469, DRAVP database peptide AR-23]",CC50,Vero cells [4],25 µM
"SNQGGSPLPRSV [DRAVPe00127, DRAVP database peptide, target HIV-1 Vif proteins]",cytotoxicity,H9 cells,[Ref.12480936]No significant cytotoxicity on H9 cells up to 50 μM.
"FVPWFSKFlKRIL [DRAVPe00383, DRAVP database entry, TL peptide]",IC90,SARS-CoV-2,12.9 µM
same,IC90,HSV-2,7.99 µM
same,IC90,HCoV-229E,50 µM
same,IC90,HSV-1,10.5 µM
same,IC90,HPIV-3,> 50 µM
same,CC50,Vero cells [1],22.32 µM
same,IC90,HCoV-OC43,16.3 µM
RRKKAAVALLPAVLLALLAP [DRAVPe01891],cytotoxicity,MDCK cells,[Ref.17005658]No cytotoxicity against MDCK cells up to 50μM
VALDPIDIAnti-SIVLNKAKSDLEESKEWIRRSNGKLDSIGSGSGC [DRAVPe01791],IC90,[5],0.28 ± 0.247 µM
same,CC50,Vero cells [6],[Ref.28344321]Vero cells: CC50>10000 nM.
WEQKIEELLKKAEEQQKKNEEELKKLEX [DRAVPe00785],CC50,TZM-bl cell,112.9 µM
same,CC50,"PBMC; PBMC, ref Ref.30089693",114.8 µM
YTSLIEELIKKSEEQQKKNEEELKKLEX [DRAVPe00783],CC50,MT-4 cell,138.37 µM
same,CC50,TZM-bl cell,106.4 µM
same,CC50,PBMC,40.01 µM
"LPLPAPSFHRTT [DRAVPe00128, DRAVP database peptide, target HIV-1 Vif proteins]",cytotoxicity,H9 cells,[Ref.12480936]No significant cytotoxicity on H9 cells up to 50 μM.
AAHLIDALYAEFLGGRVLTT [DRAVPe01423],inhibition,[7],60%
same,cytotoxicity,Vero cells [8],[Ref.18572274]No cytotoxicity against Vero cells up to 500 μM.
"LKAKTNISIREGPTLGNWAR [DRAVPe00841, DRAVP database peptide, target FIV]",inhibition,[9],24%
"FVPWFSKFlXRILGGC [DRAVPe00390, DRAVP database entry, TL peptide]",IC90,SARS-CoV-2,50 µM
same,IC90,HSV-1,48 µM
same,CC50,Vero cells [1],[Ref.35216177]Vero cells:CC50>100.00 μM
same,IC90,[2],49.9 µM
YTSLIHSLIEESQNQQEKNEQELLELDX [DRAVPe00782],CC50,MT-4 cell,366.3 µM
same,CC50,TZM-bl cell,800.8 µM
same,CC50,"PBMC; PBMC, ref Ref.30089693",212.6 µM
"PACQDFLGAMIHLKAKTNISIR [DRAVPe00840, DRAVP database peptide, target FIV]",inhibition,[9],28%
"QLLIRMI [DRAVPe00092, DRAVP database peptide, target HIV-1 integrase]",decrease of cell viability,P4 cells,~5%
same,inhibition of HIV-1 infection,HIV-1,no inhibition
"KPKQIKPPLPSV [DRAVPe00130, DRAVP database peptide, target HIV-1 Vif proteins]",cytotoxicity,H9 cells,[Ref.12480936]No significant cytotoxicity on H9 cells up to 50 μM.
VALDPIDIAnti-SIVLNKAKSDLEESKEWIRRSNGKLDSIGSGSGX [DRAVPe01793],IC90,[5],0.0007 ± 7e-06 µM
same,CC50,Vero cells [6],4.5 µM
"CFVPWFSKFlXRIL [DRAVPe00391, DRAVP database entry, TL peptide]",IC90,SARS-CoV-2,1.89 µM
same,IC90,HSV-1,2.19 µM
same,CC50,Vero cells [1],[Ref.35216177]Vero cells:CC50>100.00 μM
same,IC90,[2],5.89 µM
"FVPWFSKFlXRILC [DRAVPe00389, DRAVP database entry, TL peptide]",IC90,SARS-CoV-2,12 µM
same,IC90,HSV-1,11.1 µM
same,CC50,Vero cells [1],[Ref.35216177]Vero cells:CC50>100.00 μM
same,IC90,[2],10 µM
"YLDRVDTWLQGKINISLCLT [DRAVPe00846, DRAVP database peptide, target FIV]",inhibition,[9],9%
"GLFKVLGSVAKHLLPHVAPVIAEKL [DRAVPe00356, DRAVP database peptide, target HIV]",concentration at 50% cell death,[3],12.5 µM
AAHLIDALYAEFLGGRVLTTPVVHRALFYASAVLRQPFLAGVPSA [DRAVPe01422],cytotoxicity,Vero cells [8],[Ref.18572274]No cytotoxicity against Vero cells up to 500 μM.
LEANIEELLKKAEEQQKKNEEELKKLEX [DRAVPe00784],CC50,TZM-bl cell,434.03 µM
same,CC50,"PBMC; PBMC, ref Ref.30089693",46.83 µM
"FVPWFSKFlXRIL [DRAVPe00396, DRAVP database entry, TL peptide]",IC90,SARS-CoV-2,6.96 µM
same,IC90,HSV-1,4.96 µM
same,CC50,Vero cells [1],[Ref.35216177]Vero cells:CC50>100.00 μM
same,IC90,[2],7.11 µM
"ALWKTLLKKVLKAAAK [DRAVPe01957, DRAVP database peptide, target HIV]",CC50,P4-CCR5 cells,[Ref.15780876]P4-CCR5 cells:CC50>100 μM.
"FVPWFSKFlkRIL [DRAVPe00384, DRAVP database entry, TL peptide]",IC90,SARS-CoV-2,25.3 µM
same,IC90,HSV-2,12.5 µM
same,IC90,HCoV-229E,50 µM
same,IC90,HSV-1,12.7 µM
same,IC90,HPIV-3,> 50 µM
same,CC50,Vero cells [1],45.92 µM
same,IC90,HCoV-OC43,29.2 µM
XGSGSGVALDPIDIAnti-SIVLNKAKSDLEESKEWIRRSNGKLDSI [DRAVPe01796],IC90,[5],0.0001 ± 1e-07 µM
same,CC50,Vero cells [6],[Ref.28344321]Vero cells: CC50>10000 nM.
GLASTLTRWAHYNALIRAF [DRAVPe01424],cytotoxicity,Vero cells [8],[Ref.18572274]No cytotoxicity against Vero cells up to 500 μM.
VSFAIKWEYVLLLFLL [DRAVPe01483],EC90,hepatitis C virus(HCVpp),14 ± 12 µM
same,cytotoxicity,Huh-7 cells,[Ref.20156485]No cytotoxicity against Huh-7 cells.
IEELLKKAEEQQKKNEEELKKLEX [DRAVPe00660],CC50,TZM-bl cell,256.23 µM
same,CC50,"PBMC; PBMC, ref Ref.30089693",49.95 ± 2.97 µM
WEQKIEELLKKAEEQQKKNEEELKKLEKX [DRAVPe00787],CC50,MT-4 cells,19.65 µM
same,CC50,TZM-bl cells,12.34 µM
same,CC50,U937 cells,9.97 μ
same,CC50,Human PBMC,40.27 µM
same,CC50,C8166 cells,19.19 µM
